Laboratory results from patent US20100184851A1, “INHIBITION OF CELL PROLIFERATION” (priority 2008, published 2010).
Counter-ions that a name gives are not always drawn. Like-named read-outs stand apart in the source and are kept apart here. Values belong to the molecule of their own block, whether it stands above or below them.

Columns and labels:
[1] = tested on: A549 cells lacking Raf-1 (sh-13B); experiment: BrdU incorporation, A549 cells lacking Raf-1; type: cell-based, human; settings: 20 μM
Protocol: A549 cells lacking Raf-1 (sh-13B) were generated by stably transfecting a shRNA to Raf-1. Control cells were generated by stably transfecting A549 cells with a control shRNA. The cells were incubated in the presence or absence of compounds 3a, 10b and 10c (20 μM) and S-phase entry was assessed by measuring BrdU incorporation. Relative to controls incubated in the absence of compound, proliferation of the cells with control shRNA (having Raf-1) was inhibited by each of the compounds. In contrast, proliferation of the cells lacking Raf-1 (the cells transfected with Raf-inhibitory shRNA) was not inhibited by the compound. This experiment provides evidence that inhibition of cell proliferation by compounds of the invention is mediated by Raf-1 […].

Rb:Raf-1 binding = biological target: T1, Rb:Raf-1 binding (Homo sapiens, UniProt P06400); experiment: GST-Rb/GST-Raf-1 ELISA, inhibition of Rb:Raf-1 binding
T1 construct: a glutathione S-transferase (GST) Raf-1 (1-149aa) overnight at 4° C; made in house
T1 sequence (P06400 1-928): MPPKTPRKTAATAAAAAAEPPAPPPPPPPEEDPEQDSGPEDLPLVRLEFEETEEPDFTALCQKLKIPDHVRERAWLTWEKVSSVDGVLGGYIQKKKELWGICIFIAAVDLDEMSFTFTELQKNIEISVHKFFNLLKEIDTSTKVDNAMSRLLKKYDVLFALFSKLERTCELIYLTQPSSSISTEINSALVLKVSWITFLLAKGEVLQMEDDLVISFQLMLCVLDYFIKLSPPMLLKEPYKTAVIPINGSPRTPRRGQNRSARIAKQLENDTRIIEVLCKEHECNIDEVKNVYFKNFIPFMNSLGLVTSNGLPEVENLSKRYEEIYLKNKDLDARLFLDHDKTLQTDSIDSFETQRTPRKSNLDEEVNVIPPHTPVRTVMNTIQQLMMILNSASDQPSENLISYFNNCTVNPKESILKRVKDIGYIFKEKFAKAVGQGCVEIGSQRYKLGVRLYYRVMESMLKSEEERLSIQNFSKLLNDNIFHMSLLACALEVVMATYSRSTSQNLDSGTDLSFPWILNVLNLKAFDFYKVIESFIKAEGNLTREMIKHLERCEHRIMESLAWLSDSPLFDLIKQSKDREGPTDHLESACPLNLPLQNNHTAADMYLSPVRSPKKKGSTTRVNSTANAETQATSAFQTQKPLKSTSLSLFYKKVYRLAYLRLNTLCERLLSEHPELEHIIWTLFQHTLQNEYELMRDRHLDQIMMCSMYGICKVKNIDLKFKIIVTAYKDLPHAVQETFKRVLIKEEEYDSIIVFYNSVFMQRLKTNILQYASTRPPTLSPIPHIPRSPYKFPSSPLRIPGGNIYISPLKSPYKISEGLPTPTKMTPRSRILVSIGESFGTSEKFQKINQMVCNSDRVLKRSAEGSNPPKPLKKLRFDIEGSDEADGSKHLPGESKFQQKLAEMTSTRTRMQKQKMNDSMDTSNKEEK
Protocol: Cell culture and transfection. The human promyelocytic leukemia cell line U937 was cultured in RPMI (Mediatech, Hernden, Va.) containing 10% fetal bovine serum (FBS; Mediatech). U2-OS, Saos-2, MCF7, PANC1 and MDA-MB-231 cell lines were cultured in Dulbecco modified Eagle Medium (DMEM; Mediatech) containing 10% FBS. A549 cells and A549 shRNA Rb cell lines were maintained in Ham F-12K supplemented with 10% FBS. ShRNA cells lines were maintained in media containing 0.5 μg/mL puromycin. H1650, PC-9 and Aspc1 cell line were cultured in RPMI (Gibco/Invitrogen, Carlsbad, Calif.) containing 10% FBS. PANC1 and CAPAN2 pancreatic cell lines and the A375 Melanoma cell line was grown in DMEM supplemented with 10% FBS. Human aortic endothelial cells (HAECs, Clonetics, San Diego, Calif.) were cultured in endothelial growth medium, supplemented with 5% FBS, according to the manufacturer's instructions. U251MG and U87MG glioma cell lines were maintained in DMEM supplemented with non-essential amino acids, […] β-mercaptoethanol, and 10% FBS. ShRNA cell lines were made by stably transfecting A549 cells with two different shRNA constructs that specifically target Rb obtained from a library. The adenovirus (Ad) constructs Ad-green fluorescent protein (GFP) and Ad-E2F1 were obtained from W. D. Cress. Ad-cyclin D was provided by I. Cozar-Castellano. In vitro library screening assays. Enzyme Linked ImmunoSorbent Assay (ELISA) 96-well plates were coated with 1 μg/mL of a glutathione S-transferase (GST) Raf-1 (1-149aa) overnight at 4° C. […] GST-Rb +/− compounds were then added to the plate and incubated for 90 minutes (min) at 37° C. The amount of Rb bound to Raf-1 was detected by Rb polyclonal antibody (Santa Cruz Biotechnology, Santa Cruz, Calif.) 1:1000 incubated for 60 min at 37° C. Donkey-anti-rabbit-IgG-HRP (1:10,000) was added to the plate and incubated at 37° C. for 60 minutes. The color was developed with orthophenylenediamine (Sigma, St. Louis, Mo.) and the reaction was terminated with 3 molar (M) H2SO4. Absorbance was read at 490 nanometers (nm). To determine disruption of Rb to E2F1, Phb, or HDAC1 the above protocol was used with the exception of coating GST Rb on the ELISA plate and adding the drugs in the presence or absence of GST E2F1, Phb, or HDAC1. E2F1 monoclonal antibody (1:2000) was used to detect the amount of Rb bound to E2F1. Prohibition monoclonal antibody was used at 1:1000 to detect the amount of Rb bound to Prohibition. For disruption of MEK-Raf-1 binding ELISAs, Raf-1 1 microgram/milliliter (μg/mL) was coated on the plate and GST-MEK (20 μg/mL) was incubated +/− the compounds for 30 minutes at room temperature. Mek1 polyclonal antibody was used at 1:1000 to detect the binding of Raf-1 to Mek1. The IC50 concentrations for the Rb:Raf-1 inhibitors were determined by plotting with Origin 7.5 software (Origin, Northampton, Mass.). In vitro binding assays. Glutathione S-transferase (GST) fusion of Rb, Raf-1, E2F1, and MEK1 have been previously described (Dasgupta P, Sun J, Wang S, et al. Mol Cell Biol 2004; 24(21):9527-9541). First, 200 micrograms (pig) of U937 asynchronous lysates were pre-incubated with 10 μM of the indicated drugs or 1 μM of the Raf-1 peptide for 30 minutes at 4° C. Next, 200 μg of the U937 lysates were incubated with glutathione beads carrying an equal amount of the GST fusion proteins in 200 μl of protein binding buffer (20 mM Tris [pH 7.5], 50 mM KCL, 0.5 mM EDTA, 1 mM dithiothreitol, 0.5% NP-40, 3 mg of bovine serum albumin/mL) at 4° C. for 2 h. (Wang S, Ghosh R, Chellappan S. Mol Cell Biol 1998; 18(12):7487-7498). Matrigel Assays. Matrigel (Collaborative Biomedical Products) was used to promote the differentiation of HAECs into capillary tube-like structures (Dasgupta P, Sun J, Wang S, et al. Mol Cell Biol 2004; 24(21):9527-9541). A total of 100 μl of thawed Matrigel was added to 96-well tissue culture plates, followed by incubation at 37° C. for 60 minutes to allow polymerization. […]

[2] = class symbol **, 20 μM, read-out: Inhibition at 10 μM or 20 μM
[3] = read-out: inhibition of the Rb:Raf-1 interaction
[4] = at 20 μM, read-out: Inhibition at 10 μM or 20 μM
[5] = first value of cell, concentration not printed (head: 10 μM), read-out: Inhibition at 10 μM or 20 μM
[6] = class symbols, 10 μM, read-out: % Inhibition at 10 or 20 μM

Structure (SMILES): Cl.N=C(N)SCc1ccc(Cl)cc1Cl [Compound 3a, (2,4-Dichlorophenyl)methyl Isothiourea Hydrochloride]
proliferation (S-phase entry, BrdU incorporation) [1]: not inhibited

Structure (SMILES): N=C(N)SCc1ccc(Cl)c2ccccc12 [Compound 2, reference compound]
inhibition at 20 µM (Rb:Raf-1 binding; [3]): 95%

Structure (SMILES): N=C(N)SCc1ccc(F)cc1F [Compound 3w, (2,4-Difluorophenyl)methyl isothiourea Hydrochloride]
inhibition at 10 µM (Rb:Raf-1 binding; [6]): 50 to 100%

Structure (SMILES): N=C(N)SCc1ccc(Cl)cc1Cl [Compound 1, reference compound]
inhibition at 20 µM (Rb:Raf-1 binding; [3]): 100%

Structure (SMILES): N=C(N)SCc1ccc(Cl)cc1[N+](=O)[O-] [Compound 3u, (4-Chloro-2-nitrophenyl)methyl Isothiourea Hydrochloride]
inhibition at 10 µM (Rb:Raf-1 binding; [6]): 25 to 50%

Structure (SMILES): N=C(N)SCc1ccc(F)cc1Cl [Compound 3v, 2-Chloro-4-fluorophenyl)methyl isothiourea Hydrochloride]
inhibition at 10 µM (Rb:Raf-1 binding; [6]): 50 to 100%

Second part, led by results:

inhibition at 20 µM (Rb:Raf-1 binding; [2]): 50 to 100%
melting point: 139 to 142 °C
Structure (SMILES): Cl.N=C(N)NC(=N)SCc1ccc(Cl)cc1Cl [Compound 10c, (2,4-Dichlorophenyl)methyl Amidinoisothiourea Hydrochloride]
proliferation (S-phase entry, BrdU incorporation) [1]: not inhibited

inhibition at 10 µM (Rb:Raf-1 binding; read-out: Inhibition at 10 μM): 50 to 100%
melting point: 160 to 162 °C
Structure (SMILES): Cl.N=C(N)NC(=N)SCc1ccc2ccccc2c1Br [Compound 11b, 2-(1-Bromonaphthyl)methyl amidinoisothiourea hydrochloride]

inhibition at 20 µM (Rb:Raf-1 binding; [2]): 50 to 100%
Structure (SMILES): N=C(N)NC(=N)SCc1c(F)cccc1Cl [Compound 10g, (2-Chloro-6-fluorophenyl)methyl Amidinoisothiourea Hydrochloride]

inhibition at 20 µM (Rb:Raf-1 binding; [2]): 50 to 100%
melting point: 154 to 156 °C
Structure (SMILES): Cl.N=C(N)NC(=N)SCc1ccc(F)cc1Cl [Compound 10a, (2-Chloro-4-fluorophenyl)methyl Amidinoisothiourea Hydrochloride]

inhibition at 20 µM (Rb:Raf-1 binding; [2]): 50 to 100%
Structure (SMILES): N=C(N)NC(=N)SCc1c(F)cccc1F [Compound 10j, (2,6-Difluorophenyl)methyl Amidinoisothiourea Hydrochloride]

inhibition at 10 µM (Rb:Raf-1 binding; class symbol +, 10 μM, read-out: Inhibition at 10 μM or 20 μM): 25 to 50%
melting point: 183 to 185 °C
Structure (SMILES): Cl.N=C(N)NC(=N)SCc1ccc(Cl)cc1[N+](=O)[O-] [Compound 10d, (2-Nitro-4-chlorophenyl)methyl Amidinoisothiourea Hydrochloride]

inhibition at 20 µM (Rb:Raf-1 binding; [4]): 42%
inhibition at 10 µM (Rb:Raf-1 binding; [5]): 6%
Structure (SMILES): N=C(N)NC(=N)SCc1ccc(Cl)c(F)c1 [Compound 10i, (4-Chloro-3-fluorophenyl)methyl Amidinoisothiourea Hydrochloride]

inhibition at 20 µM (Rb:Raf-1 binding; [2]): 50 to 100%
melting point: 144 to 146 °C
Structure (SMILES): Cl.N=C(N)NC(=N)SCc1ccc(F)cc1F [Compound 10b, (2,4-Difluorophenyl)methyl Amidinoisothiourea Hydrochloride]
proliferation (S-phase entry, BrdU incorporation) [1]: not inhibited

inhibition at 20 µM (Rb:Raf-1 binding; [2]): 50 to 100%
Structure (SMILES): N=C(N)NC(=N)SCc1cc2c(cc1Cl)OCO2 [Compound 10h, (6-Chlorobenzo[d][1,3-dioxol-5-yl)methyl Amidinoisothiourea Hydrochloride]

inhibition at 20 µM (Rb:Raf-1 binding; [4]): 22%
inhibition at 10 µM (Rb:Raf-1 binding; [5]): 6%
Structure (SMILES): N#Cc1ccc(CSC(=N)NC(=N)N)cc1 [Compound 10e, (4-Cyanophenyl)methyl Amidinoisothiourea Hydrochloride]

inhibition at 10 µM (Rb:Raf-1 binding; read-out: Inhibition at 10 μM): 50 to 100%
melting point: 175 to 177 °C
Structure (SMILES): Cl.N=C(N)NC(=N)SCc1ccc2ccccc2c1 [Compound 11a, (2-Naphthyl)methyl Amidinoisothiourea hydrochloride]

inhibition at 20 µM (Rb:Raf-1 binding; [2]): 50 to 100%
Structure (SMILES): N=C(N)NC(=N)SCc1cc(Cl)ccc1Cl [Compound 10f, (2,5-Dichlorophenyl)methyl Amidinoisothiourea Hydrochloride]
